# Literature values as cited in patent US9974804B1, “Strontium-based composition, product, and method of using the same to control progression of osteoarthritis osteoporosis and tooth decay” (priority 2017, dated 2018).
# What was measured:
# [1] = compared to placebo group
# [2] = three-year daily use, compared to the control group
# [3] = osteoporosis; daily doses of 6.4 grams for months to years
# [4] = supplemented in the human diet
smiles,measurement,setting,value
N#Cc1c(N(CC(=O)[O-])CC(=O)[O-])sc(C(=O)[O-])c1CC(=O)[O-].[Sr+2].[Sr+2] [strontium ranelate],increase in osteoblast activity parameters,[1],~10%
same,trabecular and cortical bone thickness,[1],14-18%
same,reduction in hip fracture,[2],36%
same,reduction in nonvertebral fracture,[2],19%
same,reduction in vertebral fracture,[2],~49%
[Sr+2] [strontium],time after which fifty percent of bone strontium disappears,after strontium supplementation is discontinued,10 weeks
same,daily renal clearance relative to that of calcium,renal tubule excretion,about three
CC(O)C(=O)[O-].CC(O)C(=O)[O-].[Sr+2] (stereo not drawn) [strontium lactate],marked subjective improvement,[3],84%
O=C([O-])[O-].[Sr+2] [strontium carbonate],tolerability / toxicity,[4],well tolerated without reported toxicity
